Earlier results in patent publication US20170119704A1, “TREATMENT OF COGNITIVE IMPAIRMENT” (Ovid Therapeutics Inc., priority 2015, published 2017).

Conditions: in vivo

SMILES: CN(C)CCO/N=C(/C=C/c1ccc(O)cc1)c1ccccc1F [Eplivanserin, (1Z,2E)-1-(2-fluorophenyl)-3-(4-hydroxyphenyl)-prop-2-en-1-one-O-(2-dimethylaminoethyl)-oxime]
- absorption (well absorbed): > 70%
